# According to publication PMC9697438, “Therapeutic Potential of 2-Methylquinazolin-4(3H)-one as an Antiviral Agent against Influenza A Virus-Induced Acute Lung Injury in Mice” (Molecules, 2022):
# Like-named read-outs stand apart in the source and are kept apart here.
# Key:
# [1] = tested on: H1N1 virus; experiment: microbe, parasite or virus in culture; type: cell-based, influenza A virus; settings: for IC50: Influenza A virus, H1N1, MDCK, 72 h
# [2] = Solubility observation; type: physicochemical; settings: sterile water
# [3] = tested on: neuraminidase (NA); experiment: Neuraminidase activity assay in lung homogenates of H1N1-infected mice; type: in vivo, BALB/c mice
# Experimental: (§1) Five-week-old healthy male BALB/c mice (n = 6 per group) were maintained in pathogen-free individual cages with free access to drinking water and sterilized food, as described previously. The mice were randomly allocated into the following groups: normal control group, H1N1 model group, C1 (2.5, 5, 10 mg/kg) treatment group, and positive control group treated with oseltamivir (20 mg/kg, positive control). Except for normal controls, the rest of mice were intranasally infected with 30 μL of diluted H1N1virus (3LD50) after light anesthesia. Negative control mice (normal group) were challenged by inhaling equal volumes (30 μL) of virus diluent as the other mice. Then, 2 h later, C1 (2.5, 5, 10 mg/kg) and Oseltamivir (20 mg/kg) dissolved in 5% CMC-Na solution were given to mice (0.1 mL/10 g) once per day (i.g.) at day 0 (D0), day 1 (D1), day 2 (D2) and day 3 (D3) after infection with H1N1 virus. […]
# Viral titers were measured using neuraminidase (NA) assay kit designed to detect antiviral effects. […] A reaction mixture consisted of 10 μL lung homogenates, 70 μL detection buffer, 10 μL Mill-Q water and 10 μL NA fluorescence substrate in a 96-well plate. […] The fluorescence of the mixture was quantified at 322 nm of excitation wavelength and 450 nm of emission wavelength with a muti-mode microplate read (Waltham, VT, USA). […]
# [4] = tested on: influenza A virus nucleoprotein (NP); experiment: Immunohistochemistry of viral nucleoprotein in lung tissue of H1N1-infected mice; type: in vivo, BALB/c mice; settings: C1-treated mice vs indirubin-treated mice and model group; day 4
# Experimental: as §1, with “mice.” for “mice. Then, 2 h later, C1 (2.5, 5, 10 mg/kg) and Oseltamivir (20 mg/kg) dissolved in 5% CMC-Na solution were given to mice (0.1 mL/10 g) once per day (i.g.) at day 0 (D0), day 1 (D1), day 2 (D2) and day 3 (D3) after infection with H1N1 virus.”
# Influenza virus load, expression of NPs and ionized calcium binding adaptor molecule-1(Iba-1) were determined using IHC. […]
# Figure 4 Suppression of H1N1 viral replication in vivo by C1, the experimental protocol is the same as Figure 3. (A) The NA activity in lung homogenates by fluorescence effect; (B) The expression level of INF-α in lung homogenates by ELISA; (C) The expression of NP in lung tissue, the representative IHC pathological images of the lung on day 4 post-infection, the red arrow indicates viral N protein-positive signal. […]
# [5] = tested on: ionized calcium binding adaptor molecule-1 (Iba-1); design: species or system BALB/c mice; settings: mouse, in vivo
# [6] = tested on: cytokines in lung homogenates; experiment: ELISA of cytokines in lung tissue homogenates of H1N1-infected mice; type: in vivo, BALB/c mice; settings: for expression level of IL-10 in lung homogenates / expression level of INF-γ in lung homogenates: C1 10 mg/kg, Os. 20 mg/kg, vs H1N1 virus group; for IL-1β level in lung homogenates / IL-6 level in lung homogenates / MCP-1 production in lung homogenates / TNF-α level in lung homogenates: C1 2.5, 5, 10 mg/kg, oseltamivir phosphate 20 mg/kg, vs model group, dose-dependent, p < 0.001, day 4
# Experimental: Five-week-old healthy male BALB/c mice (n = 6 per group) were maintained in pathogen-free individual cages with free access to drinking water and sterilized food, as described previously. The mice were randomly allocated into the following groups: normal control group, H1N1 model group, C1 (2.5, 5, 10 mg/kg) treatment group, and positive control group treated with oseltamivir (20 mg/kg, positive control). Except for normal controls, the rest of mice were intranasally infected with 30 μL of diluted H1N1virus (3LD50) after light anesthesia. Negative control mice (normal group) were challenged by inhaling equal volumes (30 μL) of virus diluent as the other mice. Then, 2 h later, C1 (2.5, 5, 10 mg/kg) and Oseltamivir (20 mg/kg) dissolved in 5% CMC-Na solution were given to mice (0.1 mL/10 g) once per day (i.g.) at day 0 (D0), day 1 (D1), day 2 (D2) and day 3 (D3) after infection with H1N1 virus. At the same time, normal and model groups were administered equivalent amounts of 0.5% CMC-Na in the same way. Post-infection on day 4, the mice were sacrificed to collect blood plasma, lung and liver, which were weighed.
# Pulmonary tissue homogenates were collected from mice lungs by centrifugation at 4500 rpm for 20 min. BCA assay was used to quantify the total protein in the supernatant of lung homogenates. Cytokine levels of IL-1β, IL-6, TNF-α, IL-10, MCP-1, INF-γ and INF-α were determined, as instructed by the manufacturer.
# Figure 5 C1-alleviated lung injury in mice after 4 days of administration (n = 6, means ± S.D.); the experiment design is the same as Figure 3. Concentration of chemokines/cytokines/interferon was measured on day 4 post-infection by ELISA in lung homogenates (n = 6). (A) IL-6; (B) IL-1β; (C) TNF-α; (D) MCP-1; (E) IL-10; (F) IFN-γ.
# [7] = tested on: influenza virus H1N1 (A/FM/1/47); settings: for lung index: day 4, p < 0.001 vs model
# [8] = tested on: A549 cells; experiment: MTT cytotoxicity assay (TC50)
# [9] = tested on: A549 cells; settings: human
# [10] = tested on: hepatitis C virus; design: method as in earlier work; settings: cited from earlier work
# [11] = tested on: H1N1 influenza virus; experiment: H1N1-induced ALI in mice treated with EA extract: lung index, liver index, body weight, H&E; type: in vivo
smiles,measurement,setting,value
"Cc1nc2ccccc2c(=O)[nH]1 [Compound C1, 2-Methylquinazolin-4(3H)-one]",IC50,[1],23.8 µg/mL
same,solubility,[2],soluble
same,NA activity in lung homogenates,"[3]; C1 2.5 mg/kg, vs model control",no differences
same,NA activity in lung homogenates,"[3]; C1 5, 10 mg/kg, vs model group, p < 0.05",significantly lower
same,viral N protein-positive signals in lung tissue,[4],fewer positive signals
same,Iba-1 positive signals in lung tissue (macrophage recruitment),[5],fewer positive signals
same,expression level of IL-10 in lung homogenates,[6],higher
same,expression level of INF-γ in lung homogenates,[6],higher
same,IL-1β level in lung homogenates,[6],significantly reduced
same,IL-6 level in lung homogenates,[6],significantly reduced
same,MCP-1 production in lung homogenates,[6],significantly reduced
same,TNF-α level in lung homogenates,[6],significantly reduced
same,production of IFN-α in lung homogenates,"[6]; after treatment with C1, ELISA",remarkably decreased
same,lung index,"[7]; C1 2.5 mg/kg i.g. once daily D0-D3, model 10.27 ± 0.50, normal 6.40 ± 0.14",8.85 ± 0.47 mg/g
same,weight rate of mice raised,"[7]; C1 2.5 mg/kg, days 0-4, model decreased 4.5%",2%
same,lung index,"[7]; C1 5 mg/kg i.g. once daily D0-D3, model 10.27 ± 0.50",8.60 ± 0.29 mg/g
same,weight rate of mice decreased,"[7]; C1 5 mg/kg, days 0-4, model decreased 4.5%",2%
same,lung index,"[7]; C1 10 mg/kg i.g. once daily D0-D3, model 10.27 ± 0.50",8.36 ± 0.28 mg/g
same,weight rate of mice raised,"[7]; C1 10 mg/kg, days 0-4",0.2%
same,lung histological damage (H&E),"[7]; mouse, in vivo",significantly less
same,toxicity on liver and spleen,"[7]; mouse, in vivo, po",no toxicity
same,TC50,[8],79.7 µg/mL
"CC1(C)C[C@H](O)C[C@@]2(C)OC(=O)C=C12 [Compound C2, loliolide]",antiviral activity,[1],did not exert any antiviral activity
same,TC50,[9],26.7 µg/mL
same,inhibition of the hepatitis C virus,[10],potent inhibitor
"Cc1nc2ccccc2c(=O)n1-c1ccccc1O [Compound C3, 3-(2′-Hydroxyphenyl)-2-methyl-4(3H)-quinazolinone]",IC50,[1],100 µg/mL
same,TC50,[8],106.8 µg/mL
"O=C1c2cc(O)cc(O)c2CN1c1ccc(O)cc1 [Compound C4, clitocybin A]",antiviral activity,[1],did not exert any antiviral activity
same,TC50,[8],167.7 µg/mL
"CCOC(=O)C1=C[C@@H](OC(CC)CC)[C@H](NC(C)=O)[C@@H](N)C1 [Os., Oseltamivir phosphate, reference compound]",expression level of IL-10 in lung homogenates,[6],higher
same,expression level of INF-γ in lung homogenates,[6],higher
same,IL-1β level in lung homogenates,[6],significantly reduced
same,IL-6 level in lung homogenates,[6],significantly reduced
same,MCP-1 production in lung homogenates,[6],significantly reduced
same,TNF-α level in lung homogenates,[6],significantly reduced
same,weight rate of mice raised,"[7]; Os. 20 mg/kg, days 0-4",21.6%
same,lung histological damage (H&E),"[7]; mouse, in vivo",significantly less
"NC(=O)c1ncn([C@@H]2O[C@H](CO)[C@@H](O)[C@H]2O)n1 [Ribavrin, Ribavirin]",IC50,[1],37.2 µg/mL
same,body weight over 5 days,"[11]; EA extract 10 mg/kg, Ribavirbin 100 mg/kg, day 1 to day 5",gained weight
same,lung tissue histological changes (H&E),[11]; EA extract and Ribavirin groups compared to the infected group,relieved tissue consolidation
same,lung index,"[11]; Ribavirbin 100 mg/kg i.g. once daily 4 days, model 11.58 ± 0.39, p < 0.001",7.32 ± 0.39 mg/g
same,liver index,"[11]; Ribavirbin 100 mg/kg, model 50.73 ± 0.58, normal 62.79 ± 1.24",59.60 ± 1.68 mg/g
"O=C1Nc2ccccc2/C1=C1/Nc2ccccc2C1=O [indirubin, reference compound]",Iba-1 positive signals in lung tissue (macrophage recruitment),[5],fewer positive signals
same,lung edema measured as lung index,"[7]; mouse, in vivo",minimal effect
same,lung histological damage (H&E),"[7]; mouse, in vivo",no evident histological alteration
